From patent US20240294467A1, “USP9X Inhibitors” (ProDeg, LLC, priority 2021, published 2024) come the findings set out here.

A word on the IC50: it is the midpoint of a concentration-inhibition curve. In general, Ki refers to a dissociation constant, usually derived from enzyme kinetics or from competition with a known ligand.

The target in experiment [1] is T1, USP9X (Homo sapiens (Human), UniProt Q93008). The experiment can be described thus: USP9X enzyme activity assay, ubiquitin-rhodamine110 substrate.
The target of experiment [2] is T1, USP9X. The experiment can be described thus: Steady-state enzyme inhibition kinetics of USP9X. The experiment is classed as biochemical. From the text: The data were fit to a general model for enzyme inhibition (FIG. 1E) so the values of the parameters determined from the assays specified the mode of inhibition. For example, in the case of α=1 and β=0, it corresponded to purely non-competitive inhibition. For α=infinity and p=1, it corresponded to purely competitive inhibition. The values of all the parameters, KS, KI, kcat, α, and β could be determined from the steady state measurements. The enzyme reactions were set up as described in the Inhibiting the catalytic activity of USP9X section. The concentration of the substrate ubqiutin-rhodamine110 was varied. The initial rates of the reactions were determined at several concentrations of the inhibitor Compound 2A. In order to determine the values of the parameters KS and kcat, the reaction rates in the absence of the inhibitor Compound 2A, the initial reaction rate data were fit to the standard Michaelis-Menten equation v=Vmax [S]/(Km+[S]). The values of α and β could then be determined by fitting the initial rate data of the enzyme reaction at various concentrations of Compound 2A to a modified version of the Michaelis-Menten equation, designating both Vmax and KS apparent to distinguish the apparent values of the parameters determined from these plots to the true values for these parameters determined from the steady state kinetics in the absence of Compound 2A. The values of α and β could be determined from the variation of the slopes and intercepts of the series of double reciprocal plots of 1/v versus 1/[S] for each concentration of Compound 2A. […] The two values determined for KI were from the two different plots.
The two values for KI were determined by two different methods for determining this parameter from the kinetic data: 1 represented a value determined from the slope of the 1/A intercept vs 1/[I] plot; 2 represented a value determined from the y intercept of the 1/A slope vs 1/[I] plot. […] Only the values of the parameters varied for the compounds.

Experiment [3] relates to erbB2. The experiment can be described thus: Western blot of erbB2 in SK-BR3 cells. Format: cell-based, human. The settings on record: 72-hour treatment, 10 μm. The protocol: Another substrate of USP9X is the receptor tyrosine kinase erbB2. […] The breast cancer cell line SK-BR3 expresses high levels of erbB2. This cell line was treated with Compound 7A and the effects on cell viability as well as expression levels of erbB2 were examined.
Compound 7A inhibited the viability of SK-BR3. The levels of erbB2 were determined by Western blot and found to decrease in parallel with the decline in cell viability. After 72-hour treatment of 10 μm Compound 7A, the level of erbB2 declined to about zero. The loss of erbB2 from the plasma membrane was also confirmed by flow cytometry.
A general note: Immunoblotting shows a protein as a band on a membrane.

In experiment [4] the test system is Mcl-1. The experiment can be described thus: Western blot of Mcl-1 in U937 cells. The experiment is classed as cell-based. The method, then: After 24 hours treatment with Compound 7A, U937 cells were collected by centrifugation and whole cell lysates were prepared. These lysates were analyzed by Western blot to determine the level of Mcl-1. Western blot analysis was carried out as previously described (Wang et al., 2014 Journal of the American Society of Nephrology DOI: 10.1681/asn.2013060665). The band intensity for Mcl-1 in these samples were normalized to that of tubulin to correct for any inconsistencies in total protein in loading and processing the whole cell lysates.
To investigate the mechanism of action, Western blot analysis was carried out to test the induced degradation of USP9X substrate Mcl-1 by the compounds under the effects of protein synthesis inhibitor cycloheximide and/or proteasome inhibitor MG132. U937 cells were treated with 10 μM cycloheximide for one hour, with 10 μM MG132 for one hour, with the combination of 10 μM cycloheximide and 10 μM MG132 for one hour, and with vehicle (DMSO) for one hour, respectively, prior to the treatment with Compound 5A for 24 hrs. The U937 cells were harvested after treatment and whole cell lysates were prepared. These lysates were analyzed by Western blot to determine the abundance of Mcl-1 as well as that of tubulin as a normalization control. […] The band intensity of the Mcl-1 in cells treated with cycloheximide alone (Lane 2) was reduced relative to that for tubulin. […] Global blockade of protein synthesis by cycloheximide led to a significant decrease in the expression levels, especially for short lived Mcl-1. The retention of a reduced portion of Mcl-1 indicated the immunity of this portion to proteasomal degradation. […] In contrast, the band intensity of Mcl-1 relative to that of tubulin increased upon treatment of U937 cells with the proteasome inhibitor MG132 (Lane 4). […] Together, the results of this Example are consistent with the compounds acting on the proposed mechanism that intracellular inhibition of the deubiquitylase activity of USP9X blocks its ability to rescue USP9X substrates such as Mcl-1 from proteasomal degradation. In other aspects, by varying the concentration ratios of the compound and proteasome inhibitor for treating cells, it was possible to achieve controlled degradation of a USP9X substrate so the substrate could decline to a desirable level rather than degrade entirely.

The subject of experiment [5] is RKO colon cells. The experiment can be described thus: WST-1 cell viability assay. Format: cell-based. The protocol: (§1) Compound Compound 9A was tested for the ability to inhibit the proliferation of Mia-Paca-2 pancreatic cancer cells. Mia-Paca-2 and MDA-MB-231 cells were seeded into the wells of a 96 well tissue culture plate in complete medium (10% fetal calf serum) and incubated overnight at 37° C./5% CO2). The medium was exchanged for fresh medium containing varying concentrations of Compound 9A and the plate was incubated for 72 hours at 37° C./5% CO2. The viability of cells at the end of this incubation was assessed with the WST-1 reagent. To 10 ml of warm (37° C.) complete medium, 1 ml WST-1 reagent was added. The medium from the wells of the plate with the Mia-Paca-2 cells was removed and replaced with 100 μL of the WST-1 reagent in complete medium. The plate was incubated at 37 37° C./5% CO2. At timed intervals the absorbance at 450 nm was determined for each well in a UVNis plate reader. For each well the slope of the plot of the absorbance 450 nm vs time was determined. The readings were normalized to that of the wells for the untreated control and a dose-response curve was plotted. A fit to the data was made from a four parameter, variable slope program (GraphPad Prism) and the IC50 was determined.
(§2) The same procedures were also applied to the compounds Compound 7A, Compound 6A, and Compound 8A to test their inhibitory activities against RKO colon, Mia-Paca-2 pancreatic and BT-549 cancer cells.
Background: Tetrazolium dyes change colour on reduction, which living cells bring about.

For experiment [6], the system named is Mia-Paca-2 pancreatic cancer cells. The experiment can be described thus: WST-1 cell viability assay. Format: cell-based. The settings on record: Mia-Paca-2 pancreatic cells. The method, then:
as §1, §2

Experiment [7] relates to PD-L1. The experiment can be described thus: Western blot of PD-L1 in MIA PaCa-2 cells. The experiment is classed as cell-based. The settings on record: 24 hours. The protocol: MIA PaCa-2 cells expressing detectable levels of PD-L1 are treated with Compound 7A at various concentrations for 24 hours, and the ensuing level of PD-L1 are determined by Western blot to decrease by about 50% after the treatment.

The mark [8] stands for this setting: read-out: IC50 for the inhibition of USP9X activity, ubiquitin-rhodamine110 substrate.
[9] abbreviates: read-out: USP9X IC50 nM, Table 2.
The mark [10] stands for this setting: from the slope of the 1/Δ intercept vs 1/[I] plot, read-out: KI, nM (1).
The mark [11] stands for this setting: from the y intercept of the 1/Δ slope vs 1/[I] plot, read-out: KI, nM (2).

Like-named read-outs stand apart in the source and are kept apart here.

T1 sequence (Q93008 whole entry): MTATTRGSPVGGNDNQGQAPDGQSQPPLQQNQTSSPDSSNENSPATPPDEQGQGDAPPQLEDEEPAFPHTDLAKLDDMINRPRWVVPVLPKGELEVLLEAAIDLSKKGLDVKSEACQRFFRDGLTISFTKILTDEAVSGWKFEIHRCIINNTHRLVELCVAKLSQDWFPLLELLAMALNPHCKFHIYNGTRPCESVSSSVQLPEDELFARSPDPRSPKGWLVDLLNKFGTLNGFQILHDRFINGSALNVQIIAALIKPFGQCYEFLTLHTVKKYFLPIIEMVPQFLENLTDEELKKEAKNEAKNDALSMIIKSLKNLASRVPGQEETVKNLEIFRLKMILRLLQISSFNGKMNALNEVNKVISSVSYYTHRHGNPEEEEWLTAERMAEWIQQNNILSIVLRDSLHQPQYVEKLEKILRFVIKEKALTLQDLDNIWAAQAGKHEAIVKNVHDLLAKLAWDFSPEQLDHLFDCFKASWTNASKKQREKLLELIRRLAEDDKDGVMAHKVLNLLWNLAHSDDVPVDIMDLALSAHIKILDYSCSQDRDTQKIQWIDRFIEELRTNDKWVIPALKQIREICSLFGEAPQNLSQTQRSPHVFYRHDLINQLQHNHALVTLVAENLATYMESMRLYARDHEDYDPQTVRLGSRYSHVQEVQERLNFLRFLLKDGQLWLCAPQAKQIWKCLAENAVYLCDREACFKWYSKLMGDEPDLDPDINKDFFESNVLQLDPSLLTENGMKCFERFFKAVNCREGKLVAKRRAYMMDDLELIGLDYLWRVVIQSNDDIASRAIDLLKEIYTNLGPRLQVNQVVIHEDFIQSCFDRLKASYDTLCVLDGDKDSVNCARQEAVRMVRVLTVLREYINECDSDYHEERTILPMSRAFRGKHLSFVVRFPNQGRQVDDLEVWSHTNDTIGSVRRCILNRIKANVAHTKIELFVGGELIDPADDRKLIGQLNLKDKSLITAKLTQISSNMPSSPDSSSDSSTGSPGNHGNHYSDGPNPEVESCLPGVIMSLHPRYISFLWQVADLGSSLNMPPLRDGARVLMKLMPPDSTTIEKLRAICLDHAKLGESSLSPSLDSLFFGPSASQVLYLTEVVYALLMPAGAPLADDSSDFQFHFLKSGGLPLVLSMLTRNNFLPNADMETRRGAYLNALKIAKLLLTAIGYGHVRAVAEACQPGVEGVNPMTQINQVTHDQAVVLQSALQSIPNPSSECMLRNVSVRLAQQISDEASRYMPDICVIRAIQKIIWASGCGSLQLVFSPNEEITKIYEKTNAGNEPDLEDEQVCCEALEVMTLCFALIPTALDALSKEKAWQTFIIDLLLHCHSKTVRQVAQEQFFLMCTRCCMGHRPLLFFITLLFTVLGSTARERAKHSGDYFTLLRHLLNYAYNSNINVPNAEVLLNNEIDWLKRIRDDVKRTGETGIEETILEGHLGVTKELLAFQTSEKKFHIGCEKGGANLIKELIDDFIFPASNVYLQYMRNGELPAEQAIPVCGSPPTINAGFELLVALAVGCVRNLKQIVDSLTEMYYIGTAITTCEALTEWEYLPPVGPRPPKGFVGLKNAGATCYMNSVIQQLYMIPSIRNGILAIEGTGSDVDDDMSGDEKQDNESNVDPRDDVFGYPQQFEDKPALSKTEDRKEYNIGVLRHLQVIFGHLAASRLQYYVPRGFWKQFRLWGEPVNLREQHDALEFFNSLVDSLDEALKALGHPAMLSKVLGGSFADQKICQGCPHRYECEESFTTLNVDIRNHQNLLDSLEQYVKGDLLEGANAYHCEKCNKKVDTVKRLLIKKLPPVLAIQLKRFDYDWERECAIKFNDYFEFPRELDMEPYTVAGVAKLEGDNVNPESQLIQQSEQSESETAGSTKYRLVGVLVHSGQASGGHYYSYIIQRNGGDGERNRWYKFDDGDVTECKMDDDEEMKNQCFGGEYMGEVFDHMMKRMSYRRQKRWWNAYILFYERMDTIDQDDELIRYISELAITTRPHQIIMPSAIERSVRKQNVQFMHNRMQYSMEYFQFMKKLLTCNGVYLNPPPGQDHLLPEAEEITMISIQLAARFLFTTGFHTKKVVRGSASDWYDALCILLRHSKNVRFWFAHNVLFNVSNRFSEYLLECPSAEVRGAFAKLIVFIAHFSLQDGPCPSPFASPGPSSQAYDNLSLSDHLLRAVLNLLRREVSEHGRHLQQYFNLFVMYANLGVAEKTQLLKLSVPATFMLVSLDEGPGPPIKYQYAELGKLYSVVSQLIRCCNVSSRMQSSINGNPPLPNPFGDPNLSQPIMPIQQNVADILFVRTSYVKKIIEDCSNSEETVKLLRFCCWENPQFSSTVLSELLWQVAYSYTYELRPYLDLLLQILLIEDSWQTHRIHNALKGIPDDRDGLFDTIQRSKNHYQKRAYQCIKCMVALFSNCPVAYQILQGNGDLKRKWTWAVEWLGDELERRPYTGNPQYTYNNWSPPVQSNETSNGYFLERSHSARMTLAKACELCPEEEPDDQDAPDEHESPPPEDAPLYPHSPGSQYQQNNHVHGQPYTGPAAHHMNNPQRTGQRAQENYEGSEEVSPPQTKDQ

Regarding `CN1CCOc2ccc(cc2)C(=O)NCc2ccc(F)c(c2)C(=O)N[C@@H](CC(C)(C)C)C(=O)Nc2ccc(cc2)CCN(C)C(=O)CC(C)(C)CC1=O` [Compound 7A], the half-inhibitory concentration (IC50) in experiment [1] (setting [8]) and in experiment [1] (setting [9]) was 11 nM throughout. In addition, the “KS” value in experiment [2] came out at 1.87 µM. In addition, the “VMAX RFU/min” value in experiment [2] worked out at 589 RFU/min. For the same compound, the α in experiment [2] was 1.85. The compound further registered a β in experiment [2] of 0.72. The inhibition constant Ki in experiment [2] (setting [10]) is 9.4 nM; in experiment [2] (setting [11]) it was 10.3 nM. Moreover, the “level of erbB2 declined to” value in experiment [3] is “about zero”. Moreover, the “decrease of normalized level of Mcl-1” value in experiment [4] (24-hour treatment, concentration from 0 to 33 μm) was 50%. In addition, the “cell viability” value in experiment [5] and in experiment [6] was “significant decreases” in each case. The “decrease of level of PD-L1” value in experiment [7] is given as “about 50%”.
For `CN1CCOc2ccc(cc2)C(=O)NCc2cccc(c2)C(=O)N[C@@H](CC(C)(C)C)C(=O)Nc2ccc(cc2)CCN(C)C(=O)CC(C)(C)CC1=O` [Compound 5A], the concentration for half-maximal inhibition (IC50) in experiment [1] (setting [8]) was 30 nM. The half-inhibitory concentration (IC50) in experiment [1] (setting [9]) came to 30 nM. In experiment [2], the “KS” value amounted to 1.2 µM, the “VMAX RFU/min” value worked out at 335 RFU/min, the α stood at 2.3 and the β is on record as 0.78. The inhibitory constant (Ki) in experiment [2] (setting [10]) was determined as 6.7 nM. In addition, the Ki in experiment [2] (setting [11]) stood at 24 nM. In experiment [4] (10 μM MG132 one hour before compound), the “ability to induce the degradation of Mcl-1 on addition of MG132” value was “blocked”. Moreover, the “reduction of Mcl-1” value in experiment [4] (Compound 5A for 24 hrs (Lane 3)) was “about 50%”.
